In US20260069606A1, “Oxidative Stress and Diabetes Treatment with Cobinamide” (The Regents of the University of California, priority 2022, published 2026):
Where “and” joins values, the source holds several entries; their conditions need not be identical. Identical values can stand only once. Like-named read-outs stand apart in the source and are kept apart here.

Legend:
[1] = literature values, cited from earlier work; for Rate constant, reaction with nitric oxide (·NO), published: second order
[2] = Reaction with peroxynitrite, stopped-flow; assay type: biochemical
Protocol: (§1) FIGS. 2A-2F. Cobinamide Functions as a Catalase Mimetic and Reacts with Peroxynitrite. […]. Hydrogen peroxide (final concentration 50 μM) was added to solutions containing increasing concentrations of Chi(III) (FIG. 2A) or Chi(II) (FIG. 2C), and the H2O2 concentration was measured over time using a H2O2-specific electrode. The log of the velocity in the presence of Chi(III) (FIG. 2B) or Chi(II) (v) (FIG. 2D) over the velocity in their absence (Vo) is plotted against the log of their concentrations at 20 min over their concentrations at zero time. These plots yield a reaction order with respect to Chi(III) and Cbi(II) of 0.7. The experiments were repeated three times with similar results. Dotted lines show 95% confidence intervals. FIG. 2E. […] The Chi(III) spectra are slightly different from those shown in FIG. 1G because at pH 11, dihydroxo-cobinamide is generated, whereas at pH 7.1, aquohydroxo-cobinamide is the predominant species. The spectra of aquohydroxo- and dihydroxo-cobinamide are known to be different^65. FIG. 2F. Varying concentrations of Chi(II) from 1 to 10 μM were mixed with 10 μM peroxynitrite in a stopped-flow instrument, and absorption at 315 nm was monitored for 0.5 sec. The results for 5 μM Cbi(II) are shown; red circles are the observed data, and the black line is a two-phase non-linear regression curve generated by Prism 7.04 software. […] The experiment was repeated three times with similar results. Dotted lines show 95% confidence intervals.
Table I. Reaction Rates of Cobinamide (Cbi), Cobalamin, Imisopasem, and MnTBAP with Reactive Oxygen and Nitrogen Species. Reactions of the indicated compounds with O2·^−, ONOO^−, and ·NO are all second order reactions with rate constants in units of M^−1 s^−1. The reactions of Cbi(III) and Cbi(II) with H2O2 are third order with rate constant units of M^−2 s^−1. […] For the new data presented in this study, rate constants were measured for O2·^− using a hypoxanthine-xanthine oxidase-cytochrome c system, for H2O2 using a H2O2-specific sensor (World Precision Instruments), and for ONOO^− using a stopped-flow instrument. […]

[3] = even on exposure to air
Protocol: H9c2 cells were incubated for 30 min with vehicle, 2.5 μM cobinamide, or 5 μM rotenone, the latter in the absence or presence of 2.5 μM cobinamide, imisopasem, MnTBAP, or cobalamin; 5 μM MitoSOX was added during the last 10 min. The cells were incubated with 1 mg/ml DAPI for 3 min to counterstain nuclei, and then visualized under a fluorescence microscope. […] Equal-sized representative areas for each condition are shown for MitoSOX staining (red fluorescence) and the same area showing merged MitoSOX and DAPI staining. […] The amount of red fluorescence was quantified by Image J analysis. Data are the mean±SD of three independent experiments; in each experiment two separate equal-sized areas were analyzed containing ˜75 cells per area. […] H9c2 cells were incubated for 10 min with 10 μM JC-1, washed once with PBS, and then incubated for 30 min with vehicle, 2.5 μM cobinamide, or 5 μM rotenone in the absence or presence of 2.5 μM of the indicated drugs as described in Panels A, B. FIG. 3C. Cells were visualized under a fluorescence microscope and equal-sized representative areas of each condition are shown, with red and green fluorescence shown for the same area. […] The amount of red and green fluorescence was quantified by Image J analysis and the red to green ratio was calculated. The slides were analyzed by an operator who was blinded to the specific conditions. Data are the mean±SD of three independent experiments; in each experiment two separate equal-sized areas were analyzed containing ˜75 cells per area. […] Blots from four independent experiments were analyzed by densitometric scanning (Li-Cor Odyssey software) in a range where band intensity was linear. The ratio of the pJNK band to GAPDH was calculated, and the results normalized to control untreated cells. […] The UV-visible spectrum of Chi(III) in 50 mM potassium phosphate buffer, pH 7.4 was recorded before (black line) and immediately after adding a three-fold molar excess of ascorbate (blue line), cysteine (teal line), or reduced glutathione (GSH, pink line). […]

[4] = Reaction with hydrogen peroxide, H2O2-specific electrode; assay type: biochemical
Protocol: as §1
(§2) Table I. Reaction Rates of Cobinamide (Cbi), Cobalamin, Imisopasem, and MnTBAP with Reactive Oxygen and Nitrogen Species. Reactions of the indicated compounds with O2·^−, ONOO^−, and ·NO are all second order reactions with rate constants in units of M^−1 s^−1. The reactions of Cbi(III) and Cbi(II) with H2O2 are third order with rate constant units of M^−2 s^−1. Chi(II) and cobalamin(II) bind nitric oxide, so a Ka is shown in units of M^−1. For the new data presented in this study, rate constants were measured for O2·^− using a hypoxanthine-xanthine oxidase-cytochrome c system, for H2O2 using a H2O2-specific sensor (World Precision Instruments), and for ONOO^− using a stopped-flow instrument. Published rate constants for Cu/Zn and Mn superoxide dismutases (SOD) and catalase are shown for reference.^a,b Letters and numbers in parenthesis refer to footnotes and references, respectively.
Both Cbi(III) and Chi(II) react with H2O2, and the reaction was essentially first order with respect to Cbi(III) and Cbi(II) (FIG. 2A-D), and second order with respect to H2O2 for both cobinamide species. […]

[5] = test system: Jun N-terminal kinase (JNK) phosphorylation in H9c2 cells; assay: H2O2-induced JNK phosphorylation, immunoblotting; assay type: cell-based, rat; conditions: for JNK phosphorylation in H2O2-treated cells: H9c2, 100 μM H2O2 30 min, drugs at 100 μM
Description: (§3) FIGS. 3A-3H. […] FIGS. 3A-3B. […] FIG. 3A. […] FIG. 3B. […] FIGS. 3C-3D. […] FIG. 3D. […] FIGS. 3E-3F. […] FIG. 3E. Representative blots are shown. […] FIG. 3F. […] FIG. 3G. […] FIG. 3H.

[6] = Reaction with superoxide, hypoxanthine-xanthine oxidase-cytochrome c reduction system; assay type: biochemical; conditions: for Apparent rate constant, reaction with superoxide (O2·^−): second order, hypoxanthine-xanthine oxidase-cytochrome c system, new data of this study
Protocol: FIGS. 1A-1G. Cobinamide Functions as a Superoxide Dismutase Mimetic. FIGS. 1A-1B. Chemical structures of aquohydroxo-cobinamide (FIG. 1A) and hydroxo-cobalamin (FIG. 1B). FIGS. 1C, 1E. Increasing concentrations of Chi(III) (FIG. 1C) or Chi(II) (FIG. 1E) were incubated in a hypoxanthine-xanthine oxidase-cytochrome c-catalase system for measuring O2·^−, with the change in absorbance at 550 nm (ΔAbs) plotted versus time. A no substrate (no hypoxanthine) control was included. FIGS. 1D, 1F. The calculated rate of change of absorbance at 550 nm in the absence of Chi(III) or Chi(II) (Vo) divided by the calculated rate in their presence (v) is plotted against the Chi(III) (FIG. 1D) or Chi(II) (FIG. 1F) concentration, respectively. The slope of the fitted line was used to calculate the apparent rate constant according to the following equation: kCbi=slope×kcytochrome c×[cytochrome c], where kcytochrome c=1.4×10^6 M^−1 s^−1 and [cytochrome c]=70 μM^70. The data shown are the mean of duplicate samples from one experiment, with similar results found in two additional experiments. Dotted lines show 95% confidence intervals. FIG. 1G. A 20 μM solution of Chi(III) in DMSO was scanned from 280 to 600 nm yielding the spectrum shown as a black line. An equimolar amount of […] (KO2) dissolved in dimethyl sulfoxide (DMSO) was added and the solution was scanned immediately, yielding the grey line. […] The experiment was conducted three times with identical results.
as §2
The reaction of cobinamide with O2·^− was studied in two different systems, generating O2·^− using a hypoxanthine-xanthine oxidase system.
The first system contained 100 μM hypoxanthine and 0.1 unit xanthine oxidase in 20 mM sodium phosphate buffer, pH 7.1. The amount of O2·^− was measured by following reduction of ferric-cytochrome c (70 μM) at 550 nm as described previously^65. Catalase was included (32 units per sample), because xanthine oxidase generates both O2·^− and H2O2, and the latter can re-oxidize the ferro-cytochrome c product^34,66. The reaction was followed for 10 min. A no substrate blank lacking hypoxanthine was included.
In both systems, the experiments were conducted in the absence and presence of the indicated concentrations of Cbi(III) or Chi(II) 65.
Catalase was included in the reaction mixture, because the hypoxanthine-xanthine oxidase system also generates H2O2 and the latter can oxidize the ferro-cytochrome c product back to ferric-cytochrome c, thereby interfering with the kinetic measurement^34.

[7] = test system: D. melanogaster; assay: Survival of fruit flies during paraquat poisoning; assay type: in vivo
Protocol: The number of live flies was counted each day for 7 d. The experiment was repeated seven times, for a total of 70 flies per condition. The percent surviving flies was calculated; error bars represent standard deviations and are shown in one direction only for sake of clarity. […] Chi, cobinamide in Panel A and histidyl-cobinamide in Panels B-K; Imp, imisopasem; MnTP, MnTBAP; CbL, cobalamin; DNPH, 2,4-dinitrophenylhydrazine; ND, non-diabetic; D, diabetic; Veh, vehicle.
To test cobinamide in a whole animal, D. melanogaster was selected for initial studies, and oxidative stressed was increased in the files by administering paraquat in their food. Cobinamide was again compared to imisopasem, MnTBAP, and hydroxocobalamin, all administered in food.

[8] = test system: H9c2 rat embryonal cardiomyocytes; assay: Mitochondrial superoxide content, MitoSOX Red fluorescence; assay type: cell-based; conditions: H9c2, 5 μM rotenone 30 min, drugs at 2.5 μM
Protocol: as §3
H9c2 cells were plated on glass cover slips in 24 well dishes, and 16 h later the medium was changed to phenol red-free DMEM supplemented with 20 mM Hepes, 0.1% fetal bovine serum, and 0.5% bovine serum albumin. […] MitoSOX Red is a dihydroethidium derivative containing triphenyl-phosphonium, which localizes it to respiring mitochondria. Its reaction with O2·^− yields 2-hydroxy-mitoethidium (2-OH-Mito-E″), whereas its reaction with other oxidative species yields mitoethidium (Mito-E^+)^67. These two oxidative derivatives have overlapping fluorescence spectra, but they can be distinguished by high performance liquid chromatography (HPLC)^68. Rotenone increased 2-OH-Mito-E^+ about two-fold, without increasing Mito-E^+. Thus, any increased fluorescence observed on treating cells with rotenone could be ascribed to an increase in 2-OH-Mito-E^+, and decreased fluorescence by an anti-oxidant in rotenone-treated cells was likely from a decrease in 2-OH-Mito-E^+.
(§4) The cells were then washed once with PBS, placed back in the DMEM experimental medium, and incubated with the indicated drugs for 30 min. At the end of the incubation period, nuclei of both the MitoSOX Red- and JC-1-treated cells were stained with […] 4′,6-diamidino-2-phenyl-indole (DAPI) for 3 min, washed once with PBS, and returned to the DMEM experimental medium. The cover slips were removed from the wells, mounted in the DMEM experimental medium, and red (MitoSOX Red and JC-1 aggregates), green (JC-1 monomers), and blue (DAPI) fluorescence intensity was assessed using a Keyence BZ-X700 fluorescence microscope at the following paired excitation/emission wavelengths, respectively: 560/630, 490/525, and 360/460 nm.
To assess if cobinamide reduces oxidative stress in cells and to compare its […] efficacy to that of cobalamin, imisopasem, and MnTBAP, several sets of experiments were performed. First, whether cobinamide reduces mitochondrial-generated O2·^− was evaluated using the fluorescent probe MitoSOX Red. H9c2 rat embryonal cardiomyocytes were treated with rotenone, an inhibitor of complex I, to increase mitochondrial O2·^−. […] Monitoring the UV-visible spectrum of cobinamide is a sensitive means to assess ligand binding^38.

[9] = test system: H9c2 cells; assay: Mitochondrial membrane potential, JC-1 red to green fluorescence; assay type: cell-based, rat; conditions: H9c2, 5 μM rotenone 30 min, drugs at 2.5 μM
Protocol: as §3, §4
Increased mitochondrial O2·^− by rotenone would be expected to reduce the mitochondrial membrane potential (ΔΨm), due in part to activation of uncoupling proteins^39. […] Rotenone caused an almost complete loss of red fluorescence and a striking increase in green fluorescence in the cells, indicating a marked decrease in ΔΨm (FIGS. 3C-3D).

[10] = test system: COS-7 cells
Protocol: as §3
Finally, whether cobinamide could alleviate the effects of oxidative stress induced by yet another mechanism in a different cell type was tested using paraquat-treated COS-7 cells. Paraquat generates O2·^− through a redox cycling mechanism and increases both intracellular O2·^− and H2O2^42.

[11] = second order; literature values; cited from earlier work
[12] = second order; literature values; cited from earlier work; remark: listed apart in the source
[13] = literature values; not strictly comparable with third-order constants; cited from earlier work

Compound: C/C1=C2/[N-][C@H]([C@H](CC(N)=O)[C@@]2(C)CCC(=O)NC[C@@H](C)O)[C@]2(C)N=C(/C(C)=C3N=C(/C=C4N=C1[C@@H](CCC(N)=O)C\4(C)C)[C@@H](CCC(N)=O)[C@]\3(C)CC(N)=O)[C@@H](CCC(N)=O)[C@]2(C)CC(N)=O.[Co] [Cbi(II)]
- Ka, binding of nitric oxide (·NO), published [1]: Ka: 1.3 × 10^10 (51) M^−1
- Fold higher ONOO^− rate constant than MnTBAP ([2]; compared with published MnTBAP value): > 50 fold
- Fold higher ONOO^− rate constant than cobalamin(II) ([2]; compared with published cobalamin(II) value): more than 10 fold
- Apparent rate constant, reaction with peroxynitrite (ONOO^−) ([2]; second order, stopped-flow, 10 μM peroxynitrite, new data of this study): 6.34×10^6 M^−1 s^−1 and 6.3 × 10^6 (^c) ^ M^−1 s^−1
- Persistence of the reduced state [3]: remains in the reduced state for several hours
- Reaction order with respect to the cobinamide species in the reaction with H2O2 ([4]; 50 μM H2O2): 0.7
- Apparent rate constant, reaction with hydrogen peroxide (H2O2) ([4]; third order, H2O2-specific sensor, new data of this study): 3.7 × 10^4 M^−2 s^−1
- JNK phosphorylation in H2O2-treated cells [5]: reduced JNK phosphorylation to a level that was indistinguishable from vehicle-treated cells
- JNK phosphorylation or total cellular JNK in the absence of H2O2 ([5]; H9c2, drug alone): neither Cbi(III), Cbi(II) nor the other three drugs affected JNK phosphorylation
- Apparent rate constants, reaction with O2·^− ([6]; hypoxanthine-xanthine oxidase-cytochrome c reduction system, catalase included, exponent shared in the sentence): 1.92e+08 M⁻¹ s⁻¹
- Apparent rate constant, reaction with superoxide (O2·^−) [6]: 1.9e+08 M⁻¹ s⁻¹

Compound: [Cl-].[Cl-].[Mn+2].c1cc2nc(c1)CN[C@@H]1CCCC[C@H]1NCCN[C@@H]1CCCC[C@H]1NC2 [Imisopasem, imisopasem manganese]
- Rate constant, reaction with nitric oxide (·NO), published [1]: No activity (26)
- Effect on mortality of paraquat-exposed flies ([7]; 20 mM paraquat with 0.8 mM drug in food, over 7 d): no significant effect
- MitoSOX red fluorescence in rotenone-treated cells [8]: reduced the fluorescent signal substantially
- JC-1 red to green fluorescence ratio (ΔΨm) in rotenone-treated cells [9]: modest degrees of recovery
- Effect on cell growth of paraquat-treated cells ([10]; COS-7, 1 mM paraquat 3 h, 100 μM drug, counted 48 h later): neither imisopasem nor MnTBAP had an effect
- JNK phosphorylation in H2O2-treated cells [5]: small non-significant effects
- Rate constant, reaction with peroxynitrite (ONOO^−), published [11]: No activity (26)
- Rate constant, reaction with superoxide (O2·^−), published [12]: 1.6e+07 M⁻¹ s⁻¹
- Rate constant, reaction with hydrogen peroxide (H2O2), published [13]: 8.2

Compound: hydroxo-cobalamin
- Rate constant, reaction with nitric oxide (·NO), published [1]: No activity (51, 71)
- Effect on mortality of paraquat-exposed flies ([7]; in vivo): no significant effect
- MitoSOX red fluorescence in rotenone-treated cells [8]: reduced the fluorescent signal substantially
- JC-1 red to green fluorescence ratio (ΔΨm) in rotenone-treated cells [9]: modest degrees of recovery
- Effect on cell growth of paraquat-treated cells [10]: improved cell growth
- JNK phosphorylation in H2O2-treated cells [5]: no effect
- Apparent rate constant, reaction with superoxide (O2·^−) [6]: 9.4e+06 M⁻¹ s⁻¹
- Rate constant, reaction with hydrogen peroxide (H2O2), published [13]: 4.5 × 10^6
